From patent publication US10981932B2, “Macrocyclic indole derivatives” (Bayer Aktiengesellschaft, priority 2016, dated 2021)
“And” between values parts separate entries of the source, which are not always exact repeats. Identical values can stand only once. Like-named read-outs stand apart in the source and are kept apart here.

Key:
MCL-1 = MCL-1 (Homo sapiens, UniProt Q07820); assay: Protein-protein interaction assay MCL-1/Noxa BH3 peptide (MCL-1 assay), TR-FRET; format: binding; settings: MBP-MCL-1 / Noxa BH3-derived peptide, median
Outline: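 Steady-state competition, MCL-1/Noxa BH3, TR-FRET readout; 1 nM MBP-MCL-1, 11-point dose series 0.1 nM–20 μM; overnight 4 °C equilibration; 4-parameter IC50.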

SUDHL10 [1] = assay: Induction of caspase-3/7 activity (Caspase-Glo 3/7), SUDHL10; format: cell-based; settings: caspase-3/7 induction, SUDHL10 cells, 3 h treatment, median
Outline: (§1)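 A 3 h, 37 °C compound incubation precedes the Caspase-Glo 3/7 read. After subtracting medium-only signal, EC50s are fitted against the reference compound's maximal caspase induction.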

SUDHL5 [2] = assay: Induction of caspase-3/7 activity (Caspase-Glo 3/7), SUDHL5; format: cell-based; settings: caspase-3/7 induction, SUDHL5 cells, 3 h treatment, median
Outline: as §1

SUDHL10 [3] = assay: Induction of cytotoxicity (CellTiter-Glo, 5 h), SUDHL10
Method: Therefore, cytotoxicity assays were run in parallel in SUDHL5 and SUDHL10 cells.
The different cell lines were plated in culture medium (RPMI 1640 [GIBCO #22400-089]supplemented with 10% Fetal Bovine Serum) at a density of 3.300 cells in 30 μl/well in a sterile, solid black, flat bottom, polystyrene, TC-treated 384-well microplate (Corning #3571) using Multidrop Combi Reagent Dispenser. As a control, medium without cells was also added to the plate. Cells were incubated in a humidified incubator at 37° C. overnight. On the next day, the cells were treated with compounds (stock solution, 10 mM in DMSO) using the HP D300 Digital Dispenser in a concentration range of 3.3×10e-5 M (33 μM) to 5×10e-9 M (5 nM) in a single-dot curve with at least 16 dilutions and a DMSO concentration of 0.33%. Rim wells were excluded. The cells were incubated for 5 h hours in a humidified incubator at 37° C. After this incubation, 30 μl of CellTiter-Glo@ Luminescent Cell Viability reagent (Promega, G7573) was added to each well using the Multidrop Combi Reagent Dispenser, followed by 15 min incubation on a shaker at room temperature. Finally, luminescence was read at 0.1 ms, with a gain of 3000 using the PHERAstar FS microplate reader (BMG Labtech).
The Bella DRC Master Sheet was used to calculate IC50s, with fixed CI=0 and C0=1.

SUDHL5 [4] = assay: Anti-proliferative effect (CellTiter-Glo, 72 h), SUDHL5; format: cell-based; settings: SUDHL5 cells, antiproliferation, 72 h incubation, median, read-out: Antiproli SUDHL5 [M] (median)
Outline: (§2)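 Plate cells alongside a separate day 0 reference plate. Read the reference plate at once with CellTiter-Glo. Incubate treated cells 72 h at 37 °C, then read them the same way by luminescence.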

SUDHL10 [5] = assay: Anti-proliferative effect (CellTiter-Glo, 72 h), SUDHL10; format: cell-based; settings: SUDHL10 cells, antiproliferation, 72 h incubation, median, read-out: Antiproli SUDHL10 [M] (median)
Outline: as §2

OPM2 = assay: Anti-proliferative effect (CellTiter-Glo, 72 h), OPM2; format: cell-based; settings: OPM2 cells, median, read-out: IC50 antiproliferation assay OPM2 [M] (median)
Outline: as §2

SUDHL5 [6] = assay: Induction of cytotoxicity (CellTiter-Glo, 5 h), SUDHL5; settings: Homo sapiens, SU-DHL-5, 5 h, read-out: Cytotox SUDHL5 [M] (median), SUDHL5 cells, cytotoxicity induction, CellTiter-Glo, 5 h incubation, median
A2780 = assay: Anti-proliferative effect (CellTiter-Glo, 72 h), A2780; format: cell-based; settings: A2780 cells, median, read-out: IC50 antiproliferation assay A2780 [M] (median)
Outline: as §2

[7] = Homo sapiens, SU-DHL10, 5 h, read-out: Cytotox SUDHL10 [M] (median), SUDHL10 cells, cytotoxicity induction, CellTiter-Glo, 5 h incubation, median

Sequence of MCL-1 (Q07820 whole entry): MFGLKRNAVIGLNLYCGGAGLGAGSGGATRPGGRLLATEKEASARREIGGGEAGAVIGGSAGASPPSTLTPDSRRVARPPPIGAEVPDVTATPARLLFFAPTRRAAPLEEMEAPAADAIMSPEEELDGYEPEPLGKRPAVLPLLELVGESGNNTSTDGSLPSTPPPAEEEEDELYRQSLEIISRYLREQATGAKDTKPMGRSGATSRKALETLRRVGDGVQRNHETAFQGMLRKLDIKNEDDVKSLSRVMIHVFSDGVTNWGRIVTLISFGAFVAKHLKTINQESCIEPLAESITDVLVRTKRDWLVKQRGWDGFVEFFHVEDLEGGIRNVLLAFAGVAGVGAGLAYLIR

IC50 (MCL-1) [µM]	EC50 (SUDHL10 [1]; Homo sapiens, SU-DHL10, 3 h) [µM]	EC50 (SUDHL5 [2]; Homo sapiens, SU-DHL-5, 3 h) [µM]	IC50 (SUDHL5 [4]; Homo sapiens, SU-DHL-5, 72 h) [M]	IC50 (SUDHL10 [5]; Homo sapiens, SU-DHL10, 72 h) [M]	EC50 (SUDHL10 [1]) [µM]	EC50 (SUDHL5 [2])	IC50 (SUDHL5 [4]) [M]	IC50 (SUDHL10 [5]) [M]	IC50 (A2780) [M]	Structure (SMILES)	IC50 (SUDHL10 [3]; [7]) [M]	IC50 (OPM2; Homo sapiens, OPM-2, 72 h) [M]	IC50 (SUDHL5 [6]) [M]	IC50 (SUDHL10 [3]; read-out: Cytotox SUDHL10 [M] (median), SUDHL10 cells, cytotoxicity induction, CellTiter-Glo, 5 h incubation, median)	IC50 (OPM2) [M]
1.01	29.1	> 33	> 3.3e-05	9.57e-06	–	–	–	–	–	Cc1nn(C)c2c1-c1cccc3c(CCCOc4cccc5ccccc45)c(C(=O)O)n(c13)CC=CCN2Cc1ccccc1 (racemic) [Example 001, (rac)-(E/Z)-8-benzyl-9,11-dimethyl-1-[3-(1-naphthyloxy)propyl]-4,7,8,9-tetrahydropyrazolo[4′,3′:4,5][1,6]diazecino[3,2,1-hi]indole-2-carboxylic Acid]	> 3.3e-05	> 3.3e-05	2.61e-05	–	–
0.00652	30.1	15.6	1.04e-05	1.36e-05	–	–	–	–	–	Cc1nn(C)c2c1-c1cccc3c(CCCOc4cccc5ccccc45)c(C(=O)O)n(c13)CCCN(C)C2 (racemic) [Example 1-30, (rac)-7,9,11-trimethyl-1-[3-(naphthalen-1-yloxy)propyl]-4,5,6,7,8,9-hexahydropyrazolo[3′,4′:7,8][1,5]diazecino[9,10,1-hi]indole-2-carboxylic Acid]	> 3.3e-05	2.28e-05	> 3.3e-05	–	–
–	> 33	> 33	2.1e-05	1.13e-05	–	–	–	–	–	Cn1nc(COc2ccccc2)c2c1COCC=CCn1c(C(=O)O)c(CCCOc3cccc4ccccc34)c3cccc-2c31 (racemic) [Example 1-76, (rac)-(E/Z)-1-methyl-7-[3-(naphthalen-1-yloxy)propyl]-3-(phenoxymethyl)-1,10,13,15-tetrahydropyrazolo[4′,3′:9,10][1,6]oxazacycloundecino[8,7,6-hi]indole-8-carboxylic Acid]	> 3.3e-05	> 3.3e-05	> 3.3e-05	–	–
0.0994	> 33	> 33	> 3.3e-05	2.78e-05	–	–	–	–	–	CN1CCCn2c(C(=O)O)c(CCCOc3cccc4ccccc34)c3cccc(c32)-c2c(COc3ccccc3)nn(C)c2C1 (racemic) [Example 1-81, (rac)-7,9-dimethyl-1-[3-(naphthalen-1-yloxy)propyl]-1-(phenoxymethyl)-4,5,6,7,8,9-hexahydropyrazolo[3′,4′:7,8][1,5]diazecino[9,10,1-hi]indole-2-carboxylic Acid]	> 3.3e-05	> 3.3e-05	> 3.3e-05	–	–
0.11	> 33	> 33	1.18e-05	8.37e-06	–	–	–	–	–	Cc1cc(OCCCc2c(C(=O)O)n3c4c(cccc24)-c2c(COc4ccccc4)nn(C)c2CN(C)CCC3)cc(C)c1Cl (racemic) [Example 1-84, (rac)-1-[3-(4-chloro-3,5-dimethylphenoxy)propyl]-7,9-dimethyl-11-(phenoxymethyl)-4,5,6,7,8,9-hexahydropyrazolo[3′,4′:7,8][1,5]diazecino[9,10,1-hi]indole-2-carboxylic Acid]	> 3.3e-05	> 3.3e-05	> 3.3e-05	–	–
0.175	> 30	> 30	1.18e-05	7.07e-06	–	–	–	–	–	Cc1nn(C)c2c1-c1cccc3c(CCCOc4cccc5ccccc45)c(C(=O)O)n(c13)CCCN(c1ccccc1)C2 (racemic) [Example 1-97, (rac)-9,11-Dimethyl-1-[3-(1-naphthyloxy)propyl]-7-phenyl-4,5,6,7,8,9-hexahydropyrazolo[3′4′:78][1,5]diazecino[9,10,1-hi]indole-2-carboxylic Acid]	> 3e-05	1.43e-05	> 3e-05	–	–
0.00593	–	–	–	–	> 33	30.5 µM and > 33 µM	1.56e-05	1.12e-05	1.39e-05	CC(C)OCc1nn(C)c2c1-c1cccc3c(CCCOc4cccc5ccccc45)c(C(=O)O)n(c13)CCCCN(C)C2 (single isomer, unassigned) [Example 1-75, 1,14-dimethyl-7-[3-(naphthalen-1-yloxy)propyl]-3-[(propan-2-yloxy)methyl]-10,11,12,13,14,15-hexahydro-1H-pyrazolo[3′,4′:8,9][1,6]diazacycloundecino[10,11,1-hi]indole-8-carboxylic Acid]	–	–	–	1.9e-05 M and > 3.3e-05 M	9.37e-06
